Our source for the mutagenic call and call values is PubChem BioAssay AID1259408 (Genetic Toxicology Data Bank (GENE-TOX), 2018).

Active and inactive are the calls of the source. No rule for the calls is given here.

For the data set, the system named is GENE-TOX genotoxicity assays, various organisms and cells. Put plainly: GENE-TOX mutagenicity studies. The conditions noted are these: for call: Assay Type: In vivo carcinogenicity studies.
Where [1] appears, read: Species/Cell Type: Escherichia coli polA (W3119 vs P3478), Assay Type: Rec-assay, DNA effects (bacterial DNA repair), Assay Code: RE1+, Evaluation Type: Evaluation A (Pre-1980).
Setting [2] is: Species/Cell Type: Mammalian polychromatic erythrocytes, Assay Type: Micronucleus test, chromosome aberrations, Assay Code: MNTT, Evaluation Type: Evaluation B (Post-1980).
[3] abbreviates: Species/Cell Type: Nonhuman, Assay Code: CCGT, Evaluation Type: Evaluation A (Pre-1980).
Where [4] appears, read: Species/Cell Type: Salmonella typhimurium (one or more of the five standard strains: TA98, TA100, TA1535, TA1537, and TA1538), Assay Type: Histidine reverse gene mutation, Ames assay, Assay Code: SAL+, Evaluation Type: Evaluation A (Pre-1980).

Consider `CC(=O)Nc1ccc(CCc2ccccc2)cc1`, for which the mutagenic call (Species/Cell Type: Salmonella typhimurium (one or more of the five standard strains: TA98, TA100, TA1535, TA1537, and TA1538), Assay Type: Histidine reverse gene mutation, Ames assay, Assay Code: SALT, Evaluation Type: Evaluation A (Pre-1980)) is given as “no conclusion”.

With `COP(=O)(OC)OC=C(Cl)Cl`, the mutagenic call was “active; positive” (Species/Cell Type: Allium cepa, Assay Type: Chromosome aberrations, Assay Code: ALC+D, Dose Response: With dose response, Evaluation Type: Evaluation A (Pre-1980)); “active; positive” (Species/Cell Type: Bacillus subtilis (H17 vs M45), Assay Type: Rec-assay, spot test, DNA effects (bacterial DNA repair), Assay Code: REW+, Evaluation Type: Evaluation A (Pre-1980)); “inactive; negative” (Species/Cell Type: Drosophila melanogaster, Assay Type: Sex-linked recessive lethal gene mutation, Assay Code: SRL-, Evaluation Type: Evaluation A (Pre-1980)); “active; positive” (Species/Cell Type: Escherichia coli WP2, Assay Type: Tryptophan reverse gene mutation, Assay Code: WP2+, Evaluation Type: Evaluation A (Pre-1980)); “active; positive” (Species/Cell Type: Escherichia coli WP2 UVRA, Assay Type: Tryptophan reverse gene mutation, Assay Code: WPU+, Evaluation Type: Evaluation A (Pre-1980)); “active; positive” under setting [1]. Moreover, the mutagenic call runs as follows: (Species/Cell Type: Human lymphocytes, Assay Type: Sister-chromatid exchange (SCE) in vitro, Assay Code: SCL-, Evaluation Type: Evaluation A (Pre-1980)) “inactive; negative”; (Species/Cell Type: Human lymphocytes, Assay Type: Sister-chromatid exchange (SCE) in vitro, Assay Code: SCLT, Evaluation Type: Evaluation B (Post-1980)) “no conclusion”; (Species/Cell Type: Human, Assay Type: Sister-chromatid exchange (SCE) in vitro, Assay Code: SC1-, Evaluation Type: Evaluation A (Pre-1980)) “inactive; negative”; (Species/Cell Type: Human, Assay Type: Sister-chromatid exchange (SCE) in vitro, Assay Code: SC1T, Evaluation Type: Evaluation B (Post-1980)) “no conclusion”; (Species/Cell Type: Mammalian germ cells, Sex: Male, Assay Type: Chromosome aberrations in vivo, Assay Code: CY9-, Evaluation Type: Evaluation A (Pre-1980)) “inactive; negative”; under setting [2], “no conclusion”. The mutagenic call reads like this: (Species/Cell Type: Mouse, Sex: Male, Assay Type: Sperm morphology, Assay Code: SPIT, Evaluation Type: Evaluation A (Pre-1980)) “no conclusion”; (Species/Cell Type: Nonhuman bone marrow, Assay Type: Chromosome aberrations, in vivo, Assay Code: CY#-, Evaluation Type: Evaluation A (Pre-1980)) “inactive; negative”; (Species/Cell Type: Nonhuman, Assay Type: Sister-chromatid exchange (SCE) in vitro, Assay Code: SC2+D, Dose Response: With dose response, Evaluation Type: Evaluation B (Post-1980)) “active; positive”; (Species/Cell Type: Nonhuman, Assay Type: Sister-chromatid exchange (SCE) in vivo, Assay Code: SC3-, Evaluation Type: Evaluation B (Post-1980)) “inactive; negative”; (Species/Cell Type: Rodents, Sex: Male, Assay Type: Dominant lethal test, Assay Code: DLTT, Evaluation Type: Evaluation A (Pre-1980)) “no conclusion”; (Species/Cell Type: Saccharomyces cerevisiae, Assay Type: Mitotic recombination or gene conversion, Assay Code: YEC+, Evaluation Type: Evaluation A (Pre-1980)) “active; positive”. The mutagenic call is “active; positive” under setting [4]; “inactive; negative” (Species/Cell Type: Salmonella typhimurium, Serratia marcesens, Saccharomyces cerevisiae, Assay Type: Forward and reverse gene mutation, mitotic recombination and gene conversion, DNA effects, host-mediated assay, Assay Code: HM5-, Evaluation Type: Evaluation A (Pre-1980)). Moreover, the call under setting [3] is “no conclusion”.

Regarding `NC(=O)N(CCO)N=O`, under setting [4], the mutagenic call is “active; positive”.

As to `Cc1ccccc1C`, under setting [2], the mutagenic call is “no conclusion”.

In the case of `CN(C)S(=O)(=O)N(SC(F)(Cl)Cl)c1ccccc1`, the mutagenic call runs as follows: (Species/Cell Type: Bacillus subtilis (H17 vs M45), Assay Type: Rec-assay, spot test, DNA effects (bacterial DNA repair), Assay Code: REWT, Evaluation Type: Evaluation A (Pre-1980)) “no conclusion”; (Species/Cell Type: Saccharomyces cerevisiae, Assay Type: Mitotic recombination or gene conversion, Assay Code: YEC-, Evaluation Type: Evaluation A (Pre-1980)) “inactive; negative”.

As for `COC(=O)c1ccc(C(=O)OC)cc1`, the call (Species/Cell Type: Nonhuman, Assay Code: CCG-, Evaluation Type: Evaluation A (Pre-1980)) is “inactive; negative”. For the same compound, for the setting “Species/Cell Type: Syrian hamster embryo (SA7/SHE) cells, Assay Type: Cell transformation, viral enhanced, Assay Code: CT7-, Evaluation Type: Evaluation A (Pre-1980)”, the mutagenic call was “inactive; negative”.

For the compound `Oc1cccc2cc3cccc(O)c3c(O)c12`, the mutagenic call by setting is: under setting [1], “active; positive”; (Species/Cell Type: Fischer rat embryo (RLV/1706) cells, Assay Type: Cell transformation, viral enhanced, Assay Code: CTR+, Evaluation Type: Evaluation A (Pre-1980)) “active; positive”; (Species/Cell Type: Mammalian polychromatic erythrocytes, Assay Type: Micronucleus test, chromosome aberrations, Assay Code: MNT-, Evaluation Type: Evaluation B (Post-1980)) “inactive; negative”; (Species/Cell Type: Mouse (BALB/c-3T3) cells, Assay Type: Cell transformation, Assay Code: CTB-, Evaluation Type: Evaluation A (Pre-1980)) “inactive; negative”; (Species/Cell Type: Salmonella typhimurium (one or more of the five standard strains: TA98, TA100, TA1535, TA1537, and TA1538), Assay Type: Histidine reverse gene mutation, Ames assay, Assay Code: SAL-, Evaluation Type: Evaluation A (Pre-1980)) “inactive; negative”; (Species/Cell Type: Salmonella typhimurium, Assay Type: Forward and reverse gene mutation, host-mediated assay, Assay Code: HMA-, Evaluation Type: Evaluation A (Pre-1980)) “inactive; negative”. Also, the mutagenic call (Species/Cell Type: Syrian hamster embryo (SHE) cells, Assay Type: Cell transformation, clonal assay, Assay Code: CTC-, Evaluation Type: Evaluation A (Pre-1980)) is “inactive; negative”. Also, the call under setting [3] is “no conclusion”.

Turning to `Cl.[Pt]`, for the setting “Species/Cell Type: Syrian hamster embryo (SA7/SHE) cells, Assay Type: Cell transformation, viral enhanced, Assay Code: CT7+, Evaluation Type: Evaluation A (Pre-1980)”, the mutagenic call was “active; positive”.

For `CNC(=O)Nc1nc(-c2ccccc2)cs1`, the mutagenic call (Species/Cell Type: Salmonella typhimurium, Serratia marcesens, Assay Type: Forward and reverse gene mutation, host-mediated assay, Assay Code: HM2+, Evaluation Type: Evaluation A (Pre-1980)) was “active; positive”.

On to `CCNc1nc(Cl)nc(NC(C)(C)C#N)n1`, for which the mutagenic call is “no conclusion” (Species/Cell Type: Drosophila melanogaster, Assay Type: Aneuploidy, partial sex chromosome loss, chromosome aberrations, Assay Code: DAPT, Evaluation Type: Evaluation A (Pre-1980)); “no conclusion” (Species/Cell Type: Drosophila melanogaster, Assay Type: Aneuploidy, sex chromosome gain, chromosome aberrations, Assay Code: DAGT, Evaluation Type: Evaluation A (Pre-1980)); “inactive; negative” (Species/Cell Type: Drosophila melanogaster, Assay Type: Aneuploidy, whole sex chromosome loss, chromosome aberrations, Assay Code: DAC-M, Evaluation Type: Evaluation A (Pre-1980)); “no conclusion” (Species/Cell Type: Drosophila melanogaster, Assay Type: Sex-linked recessive lethal gene mutation, Assay Code: SRLT, Evaluation Type: Evaluation A (Pre-1980)); “inactive; negative” (Species/Cell Type: Neurospora crassa, Assay Type: Aneuploidy, chromosome aberrations, Assay Code: NEN-, Evaluation Type: Evaluation A (Pre-1980)); “active; positive” (Species/Cell Type: Tradescantia species, Assay Type: Chromosome aberrations, Assay Code: TRC+, Evaluation Type: Evaluation A (Pre-1980)). Besides, the mutagenic call is, setting by setting: (Species/Cell Type: Vicia faba, Assay Type: Chromosome aberrations, Assay Code: VIC+, Evaluation Type: Evaluation A (Pre-1980)) “active; positive”; (Species/Cell Type: Zea mays (corn), Assay Type: Gene mutation, Assay Code: ZEM+, Evaluation Type: Evaluation A (Pre-1980)) “active; positive”.

With `Nc1ccc2c(c1)C(=O)c1ccccc1C2=O`, where the note is “Species/Cell Type: Nonhuman, Assay Code: CCG+, Evaluation Type: Evaluation A (Pre-1980)”, the call was “active; positive”.

Turning to `CN(C)CCc1c[nH]c2cccc(OP(=O)(O)O)c12`, the mutagenic call (Species/Cell Type: Mammalian polychromatic erythrocytes, Assay Type: Micronucleus test, chromosome aberrations, Assay Code: MNTT, Evaluation Type: Evaluation A (Pre-1980)) is reported as “no conclusion”.

As for `CCSCCSP(=S)(OC)OC`, the mutagenic call (Species/Cell Type: Mammalian polychromatic erythrocytes, Assay Type: Micronucleus test, chromosome aberrations, Assay Code: MNT+U, Dose Response: Unconfirmed positive response, Evaluation Type: Evaluation B (Post-1980)) was “active; positive”.

Regarding `O=C1OC(c2ccc(O)cc2)(c2ccc(O)cc2)c2ccccc21`, the mutagenic call (Species/Cell Type: Bacillus subtilis (H17 vs M45), Assay Type: Rec-assay, spot test, DNA effects (bacterial DNA repair), Assay Code: REW-, Evaluation Type: Evaluation A (Pre-1980)) was “inactive; negative” and the mutagenic call (Species/Cell Type: Bacillus subtilis (H17 vs M45T), Assay Type: Rec-assay, spot test, DNA effects (bacterial DNA repair), Assay Code: REXT, Evaluation Type: Evaluation A (Pre-1980)) is “no conclusion”.
